Data: ChEMBL document CHEMBL2203251, “Discovery of two clinical histamine H(3) receptor antagonists: trans-N-ethyl-3-fluoro-3-[3-fluoro-4-(pyrrolidinylmethyl)phenyl]cyclobutanecarboxamide (PF-03654746) and trans-3-fluoro-3-[3-fluoro-4-(pyrrolidin-1-ylmethyl)phenyl]-N-(2-methylpropyl)cyclobutanecarboxamide (PF-03654764)” (J Med Chem, 2011)
Values joined by “and” are separate entries in the source; they are usually repeats but may differ in a detail not shown here. Equal entries are not always repeated.

Columns and labels:
[1] = AUC in Sprague-Dawley rat at 10 to 300 mg/kg, po administered for 14 days measured on day 1; format: ADME, organism-based; set-up: dose 10-300 mg/kg, route oral; conditions: plasma
[2] = in vivo; conditions: Sprague-Dawley, rat, po
Description: Cmax in po dosed Sprague-Dawley rat administered for 14 days

[3] = in vivo; conditions: beagle, dog, po, 50 mg/kg
[4] = in vitro; conditions: human, liver microsomes
Description: Half life in human liver microsomes

[5] = molecular target: T1, Histamine H3 receptor (Homo sapiens, UniProt Q9Y5N1)
T1 sequence (Q9Y5N1 whole entry): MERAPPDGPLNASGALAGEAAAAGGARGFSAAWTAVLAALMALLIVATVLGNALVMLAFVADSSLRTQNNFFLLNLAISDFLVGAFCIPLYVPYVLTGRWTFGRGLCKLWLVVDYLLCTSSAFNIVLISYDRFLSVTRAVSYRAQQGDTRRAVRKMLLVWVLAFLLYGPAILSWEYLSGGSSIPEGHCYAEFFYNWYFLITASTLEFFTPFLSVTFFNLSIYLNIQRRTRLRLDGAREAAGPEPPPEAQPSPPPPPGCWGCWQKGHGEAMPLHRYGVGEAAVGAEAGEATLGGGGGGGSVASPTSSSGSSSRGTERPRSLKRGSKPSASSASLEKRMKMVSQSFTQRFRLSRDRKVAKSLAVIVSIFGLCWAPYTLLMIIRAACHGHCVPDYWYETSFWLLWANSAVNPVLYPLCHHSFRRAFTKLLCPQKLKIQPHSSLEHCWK
Description: Displacement of [3H]-n-alpha-methylhistamine from human histamine H3 receptor homogenate after 60 mins by scintillation counting

[6] = test system: Liver microsomes; conditions: human
Description: Unbound intrinsic clearance in human liver microsomes

[7] = physchem
Description: Dissociation constant, pKa of the compound

[8] = AUC in beagle dog at 30 mg/kg, po administered for 7 days; format: ADME, organism-based, Canis lupus familiaris; set-up: dose 30 mg/kg, route oral; conditions: plasma
[9] = human, thle, 24 h
Description: Toxicity in human THLE cells assessed as drug-induced phospholipid accumulation after 24 hrs by Hoechst staining-based microscopic analysis

[10] = in vivo; conditions: Sprague-Dawley, rat, plasma, po
Description: AUC (0 to 24 hrs) in po dosed Sprague-Dawley rat administered for 14 days

[11] = in vivo; conditions: beagle, dog, plasma, po
Description: AUC (0 to 24 hrs) in po dosed beagle dog administered for 7 days

[12] = in vivo; conditions: beagle, dog, po
Description: Cmax in po dosed beagle dog administered for 7 days

[13] = test system: Canis familiaris; test: Toxicity in beagle dog assessed as compound-induced cadiomyocyte vacuole formation at 30 mg/kg, po administered for 7 days; format: organism-based, Canis lupus familiaris; set-up: dose 30 mg/kg, route oral; conditions: in vivo, 168 h
[14] = in vivo; conditions: Sprague-Dawley, rat, po; remark: listed apart in the source
Description: Tmax in po dosed Sprague-Dawley rat administered for 14 days

[15] = in vivo; conditions: Sprague-Dawley, rat, po; remark: listed apart in the source
Description: Toxicity in po dosed Sprague-Dawley rat administered for 14 days

[16] = test system: Canis familiaris; test: Toxicity in beagle dog assessed as convulsion at 50 mg/kg, po administered for 7 days measured on day 2; format: organism-based, Canis lupus familiaris; set-up: dose 50 mg/kg, route oral; conditions: in vivo, 168 h
[17] = AUC in beagle dog at 50 mg/kg, po administered for 7 days measured on day 1; format: ADME, organism-based, Canis lupus familiaris; set-up: dose 50 mg/kg, route oral; conditions: plasma
[18] = in vitro; conditions: human, plasma
Description: Fraction unbound in human plasma

[19] = test system: MDR1 (human); test: in vitro; conditions: dog, MDCK-MDR1
Description: Efflux ratio of permeability across basal to apical side over apical to basolateral side in dog MDCK cells expressing human MDR1

[20] = molecular target: T1, Histamine H3 receptor; remark: listed apart in the source
Description: Antagonist activity at human histamine H3 receptor expressed in human HEK293 cells assessed as inhibition of forskolin-induced cAMP release pretreated 10 mins prior forskolin stimulation measured after 4.5 hrs by spectrofluorimetric analysis

[21] = in vitro; conditions: human, Caco-2
Description: Permeability across apical to basolateral side in human Caco2 cells at 2 uM

[22] = in vivo; conditions: Sprague-Dawley, rat, po; remark: listed apart in the source
Description: Tmax in po dosed Sprague-Dawley rat administered for 4 days

[23] = test system: Canis familiaris; test: Toxicity in beagle dog assessed as testicular degradation at 30 mg/kg, po administered for 7 days; format: organism-based, Canis lupus familiaris; set-up: dose 30 mg/kg, route oral; conditions: in vivo, 168 h
[24] = molecular target: T2, Histamine H3 receptor (Rattus norvegicus, UniProt Q9QYN8)
T2 sequence (Q9QYN8 whole entry): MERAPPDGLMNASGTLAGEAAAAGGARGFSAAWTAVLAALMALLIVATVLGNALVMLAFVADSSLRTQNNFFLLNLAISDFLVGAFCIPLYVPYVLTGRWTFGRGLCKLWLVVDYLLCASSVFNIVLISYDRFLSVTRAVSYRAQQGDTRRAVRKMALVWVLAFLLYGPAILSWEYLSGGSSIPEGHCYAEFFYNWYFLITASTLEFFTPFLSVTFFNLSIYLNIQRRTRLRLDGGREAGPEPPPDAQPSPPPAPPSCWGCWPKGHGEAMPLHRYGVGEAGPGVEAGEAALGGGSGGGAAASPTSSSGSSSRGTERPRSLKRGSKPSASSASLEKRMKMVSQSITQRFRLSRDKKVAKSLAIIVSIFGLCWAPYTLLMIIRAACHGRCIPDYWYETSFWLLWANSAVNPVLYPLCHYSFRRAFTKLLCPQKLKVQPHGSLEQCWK
Description: Displacement of [3H]-n-alpha-methylhistamine from rat histamine H3 receptor homogenate after 60 mins by scintillation counting

[25] = in vivo; conditions: beagle, dog, po; remark: listed apart in the source
Description: Toxicity in po dosed beagle dog administered for 7 days

[26] = in vivo; conditions: beagle, dog, po; remark: listed apart in the source
Description: Tmax in po dosed beagle dog administered for 7 days

[27] = molecular target: T2, Histamine H3 receptor; remark: listed apart in the source
Description: Antagonist activity at rat histamine H3 receptor expressed in human HEK293 cells assessed as inhibition of forskolin-induced cAMP release pretreated 10 mins prior forskolin stimulation measured after 4.5 hrs by spectrofluorimetric analysis

[28] = molecular target: Voltage-gated inwardly rectifying potassium channel KCNH2 (Homo sapiens, UniProt Q12809); test: Inhibition of human Erg expressed in human HEK293 cells; format: cell-based
Sequence of Voltage-gated inwardly rectifying potassium channel KCNH2 (Q12809 whole entry): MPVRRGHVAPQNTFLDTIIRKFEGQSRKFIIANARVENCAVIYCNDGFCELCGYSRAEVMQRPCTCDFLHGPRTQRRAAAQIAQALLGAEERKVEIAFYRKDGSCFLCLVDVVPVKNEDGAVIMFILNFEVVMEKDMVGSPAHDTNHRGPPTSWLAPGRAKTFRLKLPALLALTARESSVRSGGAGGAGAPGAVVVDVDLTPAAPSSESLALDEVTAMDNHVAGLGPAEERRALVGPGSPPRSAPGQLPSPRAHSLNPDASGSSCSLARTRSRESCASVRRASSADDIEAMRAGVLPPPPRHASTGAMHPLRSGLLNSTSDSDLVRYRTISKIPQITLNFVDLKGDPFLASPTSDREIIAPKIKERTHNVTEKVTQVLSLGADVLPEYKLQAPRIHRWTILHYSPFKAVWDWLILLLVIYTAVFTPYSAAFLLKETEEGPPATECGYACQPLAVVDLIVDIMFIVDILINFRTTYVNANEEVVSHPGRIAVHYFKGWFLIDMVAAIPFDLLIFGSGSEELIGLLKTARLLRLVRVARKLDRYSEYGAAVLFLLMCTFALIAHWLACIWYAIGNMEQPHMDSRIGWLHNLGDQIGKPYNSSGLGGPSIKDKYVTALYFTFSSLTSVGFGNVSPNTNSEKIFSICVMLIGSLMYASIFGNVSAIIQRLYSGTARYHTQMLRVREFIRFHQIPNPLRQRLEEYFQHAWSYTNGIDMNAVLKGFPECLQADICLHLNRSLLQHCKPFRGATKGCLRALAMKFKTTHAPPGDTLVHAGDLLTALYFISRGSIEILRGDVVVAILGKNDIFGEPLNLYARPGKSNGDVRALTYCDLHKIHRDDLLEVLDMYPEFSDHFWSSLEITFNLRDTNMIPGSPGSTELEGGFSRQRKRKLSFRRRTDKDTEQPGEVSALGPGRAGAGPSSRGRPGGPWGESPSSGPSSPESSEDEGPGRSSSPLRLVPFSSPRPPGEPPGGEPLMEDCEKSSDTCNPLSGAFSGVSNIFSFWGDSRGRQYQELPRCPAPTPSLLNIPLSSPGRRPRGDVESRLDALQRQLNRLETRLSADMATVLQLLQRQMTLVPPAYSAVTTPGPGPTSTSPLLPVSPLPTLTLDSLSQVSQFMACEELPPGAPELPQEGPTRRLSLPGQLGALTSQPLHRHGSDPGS

[29] = Genotoxicity in micronucleus
[30] = test system: Rattus norvegicus; test: Toxicity in Sprague-Dawley rat assessed as compound-induced phospholipidosis in kidney at >= 50 mg/kg, po administered for 4 days; format: organism-based; set-up: dose 50 mg/kg, route oral; conditions: in vivo, 96 h
[31] = in vitro; conditions: rat, plasma
Description: Fraction unbound in rat plasma

[32] = test system: Canis familiaris; test: Toxicity in beagle dog assessed as compound-induced cadiomyocyte vacuole formation at 10 mg/kg, po administered for 7 days; format: organism-based, Canis lupus familiaris; set-up: dose 10 mg/kg, route oral; conditions: in vivo, 168 h
[33] = AUC in Sprague-Dawley rat at 5 mg/kg, po administered for 4 days; format: ADME, organism-based; set-up: dose 5 mg/kg, route oral; conditions: plasma
[34] = test system: Rattus norvegicus; test: Toxicity in Sprague-Dawley rat assessed as compound-induced phospholipidosis at 5 to 30 mg/kg, po administered for 14 days; format: organism-based; set-up: dose 5-30 mg/kg, route oral; conditions: in vivo, 336 h
[35] = AUC (0 to 24 hrs) in po dosed Sprague-Dawley rat administered for 4 days; format: ADME, organism-based; set-up: time < 24 hr, route oral; conditions: plasma
[36] = test system: Rattus norvegicus; test: Toxicity in Sprague-Dawley rat assessed as compound-induced phospholipidosis in lung at >= 50 mg/kg, po administered for 4 days; format: organism-based; set-up: dose 50 mg/kg, route oral; conditions: in vivo, 96 h
[37] = Toxicity in po dosed Sprague-Dawley rat administered for 4 days; format: organism-based; conditions: in vivo
[38] = Cmax in Sprague-Dawley rat at 400 mg/kg, po administered for 4 days; format: ADME, organism-based; set-up: dose 400 mg/kg, route oral; conditions: in vivo
[39] = AUC in Sprague-Dawley rat at >[…] mg/kg, po administered for 4 days; format: ADME, organism-based; conditions: plasma, 50 mg/kg
[40] = test system: Rattus norvegicus; test: Toxicity in Sprague-Dawley rat assessed as mortality at 400 mg/kg, po administered for 4 days; format: organism-based; set-up: dose 400 mg/kg, route oral; conditions: in vivo, 96 h
[41] = test system: Rattus norvegicus; test: Toxicity in Sprague-Dawley rat assessed as compound-induced phospholipidosis at 30 mg/kg, po administered for 14 days; format: organism-based; set-up: dose 30 mg/kg, route oral; conditions: in vivo, 336 h
[42] = Apparent permeability across apical to basolateral side in MDCK cells at 2 uM; format: ADME, cell-based, Canis lupus familiaris; conditions: dog
[43] = Cmax in po dosed Sprague-Dawley rat administered for 4 days; format: ADME, organism-based; set-up: route oral; conditions: in vivo
[44] = test system: Canis familiaris; test: Toxicity in beagle dog assessed as compound-induced cadiomyocyte vacuole formation at 25 mg/kg, po administered for 7 days; format: organism-based, Canis lupus familiaris; set-up: dose 25 mg/kg, route oral; conditions: in vivo, 168 h
[45] = AUC in Sprague-Dawley rat at >[…] mg/kg, po administered for 14 days measured on day 1; format: ADME, organism-based; conditions: plasma, 50 mg/kg
[46] = test system: Rattus norvegicus; test: Toxicity in Sprague-Dawley rat assessed as compound-induced phospholipidosis in lung at >= 50 mg/kg, po administered for 14 days; format: organism-based; set-up: dose 50 mg/kg, route oral; conditions: in vivo, 336 h
[47] = test system: Rattus norvegicus; test: Toxicity in Sprague-Dawley rat assessed as compound-induced phospholipidosis in liver at >= 50 mg/kg, po administered for 14 days; format: organism-based; set-up: dose 50 mg/kg, route oral; conditions: in vivo, 336 h

Compound | Cmax at 336 h [2] [nM] | half-life [4] [min] | Ki [5] | CL free [6] [mL/min/kg] | pKa [7] | MED [9] [µM] | AUC at 24 h [10] [ng·h/mL] | AUC at 24 h [11] [ng·h/mL] | Cmax at 168 h [12] [nM] | Tmax at 336 h [14] [min] | MTD at 336 h [15] [mg/kg] | fraction unbound [18] | efflux ratio [19] | Ki [20] [nM] | Papp A→B at 2 µM [21] [×10⁻⁶ cm/s] | Tmax at 96 h [22] [min] | Ki [24] [nM] | MTD at 168 h [25] [mg/kg] | Tmax at 168 h [26] [min] | Ki [27] [nM] | also measured
CC(=O)N(C)C[C@H]1C[C@H](c2ccc(CN3CCCC3)c(Cl)c2)C1 | 6290 | > 120 | 14 nM and 12.9 nM | < 8 | 9.3 | 245.3 | 4440 | 2910 | 5130 | 30 | ≥ 300 | 0.24 | 1.27 | 3.3 | 53.4 | 30 | 160 | < 30 | 30 | 21 | AUC at 336 h [1]: ≤ 4440 ng·h/mL; Cmax [3]: 3200 ng/mL; AUC at 168 h [8]: 2910 ng·h/mL; Activity [13]: Toxic; Activity [16]: Toxic; AUC at 168 h [17]: 4780 ng·h/mL; Activity [23]: Toxic
c1cc([C@H]2C[C@@H](CN3CCOCC3)C2)ccc1CN1CCCC1 | 5000 | > 120 | 2.2 nM | < 8 | 7.7 |  | 15500 | 740 | 148 | 30 | ≥ 30 | 0.78 | < 0.95 | 0.89 | 8.2 | 30 | 7.7 | < 10 | 30 | 3.5 | IC50 [28]: 300000 nM; Activity [29]: Non-toxic; Activity [30]: Toxic; fraction unbound [31]: 0.72; Activity [32]: Toxic; AUC at 96 h [33]: 1240 ng·h/mL; Activity [34]: Toxic; AUC at 24 h [35]: 1240 ng·h/mL; Activity [36]: Toxic; MTD at 96 h [37]: ≥ 5 mg/kg; Cmax [38]: 3920 ng/mL; AUC at 96 h [39]: 17400 ng·h/mL; Activity [40]: Toxic; Activity [41]: Non-toxic; Papp A→B at 2 µM [42]: > 10 ×10⁻⁶ cm/s; Cmax [43]: 302 nM; Activity [44]: Toxic
c1cnc(OC[C@H]2C[C@H](c3ccc(CN4CCCC4)cc3)C2)nc1 | 402 | > 120 | 8.7 nM | < 8 | 9.8 | 119.5 | 1280 |  |  | 30 | ≥ 5 | 0.44 | 0.9 | 12 | 32.5 | 30 | 82 |  | 30 | 79 | AUC at 336 h [45]: 21300 ng·h/mL; fraction unbound [31]: 0.47; Activity [46]: Toxic; Activity [47]: Toxic
